Source: patent publication US7862798B2, “Vitamin-targeted imaging agents” (Endocyte, Inc., priority 2002, dated 2011)

Test system: FR-positive KB tumors
Test: Tissue distribution, KB tumor model (Example 16, Table 5)
Type: in vivo, nude mice
Conditions: for Blood / Heart / Kidney (one) / Liver & Gall Bladder / Lungs / Muscle / Spleen / Stomach, Intestines & Contents / Tumor: 99mTc-labelled conjugate, 4 hours post i.v.
Method: The protocols used in this example are similar to those described in Example 11. The ability of ^99mTc-EC11 (peptide-A1), ^99mTc-EC13 (peptide-A3), and ^99mTc-EC14 (peptide-A2) to target tumors in vivo was assessed using the FR-positive KB tumor model.
FR-positive KB tumor cells (0.25×10^6 per animal) were inoculated subcutaneously in the intracapsular region. Fourteen days after tumor cell inoculation, the animals (n=4/group) were injected intravenously with ^99mTc-EC11, ^99mTc-EC13, or ^99mTc-EC14 at the doses (about 12 μg/kg) of the conjugates shown in Table 5 below. Stocks of ^99mTc-EC11, ^99mTc-EC13, and ^99mTc-EC14 solutions were prepared on the day of use as described above. About a 20-fold excess of free folate (about 200 μg/kg) was co-administered to control animals (n=4/group). […] Selected tissues were removed, weighed, and counted in an automatic gamma counter to determine ^99mTc distribution. Uptake of the radiopharmaceutical in terms of percentage injected dose of wet weight tissue (% ID/g) was calculated by reference to standards prepared from dilutions of the injected preparation.

[1] = folic acid dihydrate co-injected (about 200 μg/kg)
[2] = folic acid dihydrate co-injected

SMILES	Blood [1]	Heart [1]	Kidney (one) [1]	Liver & Gall Bladder [1]	Lungs [1]	Muscle [1]	Spleen [1]	Stomach, Intestines & Contents [1]	Tumor [1]	Blood (no folic acid)	Heart (no folic acid)	Kidney (one) (no folic acid)	Liver & Gall Bladder (no folic acid)	Lungs (no folic acid)	Muscle (no folic acid)	Spleen (no folic acid)	Stomach, Intestines & Contents (no folic acid)	Tumor (no folic acid, KB tumor)	Tumor/Blood [2]	Tumor/Kidney [2]	further results
Nc1nc2ncc(CNc3ccc(C(=O)N[C@@H](CCC(=O)N[C@@H](CCC(=O)NC[C@H](N)C(=O)N[C@@H](CC(=O)O)C(=O)N[C@@H](CS)C(=O)O)C(=O)O)C(=O)O)cc3)nc2c(=O)[nH]1 [EC11]	0.25 ± 0.01 Percentage of Injected 99mTc D	0.36 ± 0.03 Percentage of Injected 99mTc D	55.5 ± 2.3 Percentage of Injected 99mTc D	1.6 ± 0.1 Percentage of Injected 99mTc D	0.35 ± 0.03 Percentage of Injected 99mTc D	0.38 ± 0.06 Percentage of Injected 99mTc D	0.23 ± 0.01 Percentage of Injected 99mTc D	1.1 ± 0.3 Percentage of Injected 99mTc D	1.47 ± 0.24 Percentage of Injected 99mTc D	0.21 ± 0.01 Percentage of Injected 99mTc D	2.5 ± 0.3 Percentage of Injected 99mTc D	67.8 ± 6.9 Percentage of Injected 99mTc D	5.4 ± 1.4 Percentage of Injected 99mTc D	1.2 ± 0.2 Percentage of Injected 99mTc D	1.8 ± 0.1 Percentage of Injected 99mTc D	0.38 ± 0.03 Percentage of Injected 99mTc D	1.4 ± 0.1 Percentage of Injected 99mTc D	2.95 ± 0.57 Percentage of Injected 99mTc D	5.9 ± 0.9	0.027 ± 0.005	Tumor/Liver [2]: 0.94 ± 0.09; Tumor/Muscle [2]: 3.9 ± 0.08; Tumor/Blood (no folic acid): 13.7 ± 2.1; Tumor/Kidney (no folic acid): 0.043 ± 0.005; Tumor/Liver (no folic acid): 0.57 ± 0.14; Tumor/Muscle (no folic acid): 1.6 ± 0.3
Nc1nc2ncc(CNc3ccc(C(=O)N[C@@H](CCC(=O)NC[C@H](N)C(=O)N[C@@H](CO)C(=O)N[C@@H](CS)C(=O)O)C(=O)O)cc3)nc2c(=O)[nH]1 [EC13]	0.16 ± 0.02 Percentage of Injected 99mTc D	0.20 ± 0.03 Percentage of Injected 99mTc D	29.1 ± 2.2 Percentage of Injected 99mTc D	0.65 ± 0.04 Percentage of Injected 99mTc D	0.23 ± 0.02 Percentage of Injected 99mTc D	0.21 ± 0.03 Percentage of Injected 99mTc D	0.15 ± 0.02 Percentage of Injected 99mTc D	3.7 ± 0.7 Percentage of Injected 99mTc D	1.67 ± 0.24 Percentage of Injected 99mTc D	0.25 ± 0.03 Percentage of Injected 99mTc D	1.6 ± 0.1 Percentage of Injected 99mTc D	54.5 ± 2.4 Percentage of Injected 99mTc D	3.5 ± 0.7 Percentage of Injected 99mTc D	1.1 ± 0.1 Percentage of Injected 99mTc D	1.7 ± 0.2 Percentage of Injected 99mTc D	0.39 ± 0.06 Percentage of Injected 99mTc D	2.5 ± 0.2 Percentage of Injected 99mTc D	5.46 ± 0.45 Percentage of Injected 99mTc D	10.2 ± 1.5.^	0.058 ± 0.010	Tumor/Liver [2]: 2.6 ± 0.3; Tumor/Muscle [2]: 8.2 ± 2.0; Tumor/Blood (no folic acid): 22.5 ± 1.4; Tumor/Kidney (no folic acid): 0.10 ± 0.01; Tumor/Liver (no folic acid): 1.6 ± 0.2; Tumor/Muscle (no folic acid): 3.3 ± 0.3
Nc1nc2ncc(CNc3ccc(C(=O)N[C@@H](CCC(=O)N[C@H](CCC(=O)NC[C@H](N)C(=O)N[C@@H](CC(=O)O)C(=O)N[C@@H](CS)C(=O)O)C(=O)O)C(=O)O)cc3)nc2c(=O)[nH]1 [EC14, Pte-D-Glu-D-Glu-βDpr-Asp-Cys]	0.12 ± 0.02 Percentage of Injected 99mTc D	0.24 ± 0.01 Percentage of Injected 99mTc D	20.6 ± 2.4 Percentage of Injected 99mTc D	0.66 ± 0.07 Percentage of Injected 99mTc D	0.24 ± 0.02 Percentage of Injected 99mTc D	0.26 ± 0.02 Percentage of Injected 99mTc D	0.15 ± 0.01 Percentage of Injected 99mTc D	0.50 ± 0.10 Percentage of Injected 99mTc D	2.0 ± 0.5 Percentage of Injected 99mTc D	0.19 ± 0.02 Percentage of Injected 99mTc D	3.0 ± 0.5 Percentage of Injected 99mTc D	44.2 ± 6.4 Percentage of Injected 99mTc D	4.5 ± 1.0 Percentage of Injected 99mTc D	1.6 ± 0.3 Percentage of Injected 99mTc D	2.4 ± 0.4 Percentage of Injected 99mTc D	0.41 ± 0.06 Percentage of Injected 99mTc D	1.4 ± 0.1 Percentage of Injected 99mTc D	5.57 ± 0.76 Percentage of Injected 99mTc D	17.0 ± 4.5	0.10 ± 0.01	Tumor/Liver [2]: 3.0 ± 0.6; Tumor/Muscle [2]: 7.7 ± 1.7; Tumor/Blood (no folic acid): 29.3 ± 5.2; Tumor/Kidney (no folic acid): 0.13 ± 0.03; Tumor/Liver (no folic acid): 1.3 ± 0.3; Tumor/Muscle (no folic acid): 2.4 ± 0.6
